Tests used:
Type in all cases: physicochemical
[1] = Solvent solubility of perfluoroalkanamides; parameters: key: S: complete dissolve in the solvent at room temperature; P: precipitation in the solvent; details: 3% w/w; for Solubility in Acetone: room temperature
From the text: It is clear from the observation that perfluoroalkanamides of the present invention can easily form micelles in acetone at room temperature. With shorter perfluoroalkyl group (i.e., C6F13—), perfluoroalkanamide can dissolve into all tested hydrocarbon solvents at room temperature, but precipitate in fluorocarbon (i.e., CF-76).

[2] = Solubility of C7F15-MPEG in PFC; details: decreases with increment of MW of MPEG
[3] = Ternary phase diagram / phase behavior of PFC/water/fluorosurfactant (PFC microemulsion formation)
From the text: The formation of PFC-in-water emulsion requires high energy to disperse PFC as surfactant-stabilized microdroplets in aqueous phase; while, for thermodynamic stable PFC microemulsion, two immiscible liquid phases with the aid of a pertinent fluorosurfactant can turn into an optically isotropic solution simply by gentle mixing. Given in FIG. 2, different phase behaviors were created by titering various concentrations of C7F15CONH-MPEG350 surfactant dissolved in water solution with different amounts of PFOB liquid. Since the specific density of PFOB is 1.94 which is larger than the water density, the milky PFOB-in-water emulsion settled down on the bottom of the vial (FIG. 2A). […]
Aqueous solutions containing given quantities of fluorosurfactant were progressively added with PFC and placed in a thermostat water bath set at 25° C. After each addition, the aspect of the solution was recorded, along with number, nature, and approximate volumes of phases. […] Ternary phase diagrams were then plotted to distinguish the boundaries between different phases and used to quantitate the proportion of three components (water, fluorosurfactant, and PFC) forming PFC microemulsion.
The ternary phase diagram given in FIG. 3 was determined by the weight fraction of water, PFOB, and RF-MPEG350. The PFOB microemulsion domain was determined to be the area under the test points symbolized as ▪. […]

| Compound | Solubility in CF-76 (3 M) ([1]; @ RT) | Solubility in Ethanol ([1]; @ RT) | Solubility in Hexane ([1]; @ RT) | Solubility in Acetone [1] | Solubility in CF-76 (3 M) ([1]; > 40° C.) [°C → S] | Size of PFC microemulsion domain in ternary phase diagram ([3]; PFOB and ZT85, 25° C.) | Formation of transparent PFC microemulsion ([3]; PFOB or ZT85 / water / fluorosurfactant, 25° C., no co-surfactant) | Solubility in Hexane ([1]; > 30° C.) [°C → S] | Solubility in Ethanol ([1]; > 40° C.) [°C → S] | Solubility in PFOB or ZT85 (rank order) [2] |
| --- | --- | --- | --- | --- | --- | --- | --- | --- | --- | --- |
| CCCCCCCCNC(=O)C(F)(F)C(F)(F)C(F)(F)C(F)(F)C(F)(F)C(F)(F)C(F)(F)C(F)(F)F [C8F17CONHC8H17] | S | S | S | S | – | – | – | – | – | – |
| C7F15CONH-PEG550-OCH3 | – | – | – | – | – | – | – | – | – | C7F15-MPEG350>C7F15-MPEG550>C7F15-MPEG750 |
| CCCCCCCCCCCCNC(=O)C(F)(F)C(F)(F)C(F)(F)C(F)(F)C(F)(F)C(F)(F)F [C6F13CONHC12H25] | @ RT → P > | S | S | S | 40 | – | – | – | – | – |
| C7F15CONH-PEG750-OCH3 | – | – | – | – | – | – | – | – | – | C7F15-MPEG350>C7F15-MPEG550>C7F15-MPEG750 |

Second part, led by results:

| Solubility in CF-76 (3 M) ([1]; @ RT) | Solubility in Ethanol ([1]; @ RT) | Solubility in Hexane ([1]; @ RT) | Solubility in Acetone [1] | Solubility in CF-76 (3 M) ([1]; > 40° C.) [°C → S] | Size of PFC microemulsion domain in ternary phase diagram ([3]; PFOB and ZT85, 25° C.) | Formation of transparent PFC microemulsion ([3]; PFOB or ZT85 / water / fluorosurfactant, 25° C., no co-surfactant) | Solubility in Hexane ([1]; > 30° C.) [°C → S] | Solubility in Ethanol ([1]; > 40° C.) [°C → S] | Compound | Solubility in PFOB or ZT85 (rank order) [2] |
| --- | --- | --- | --- | --- | --- | --- | --- | --- | --- | --- |
| – | – | – | – | – | largest PFC microemulsion region | PFC-in-water microemulsion | – | – | C7F15CONH-PEG350-OCH3 | C7F15-MPEG350>C7F15-MPEG550>C7F15-MPEG750 |
| @ RT → P > | @ RT → P > | @ RT → P > | S | 40 | – | – | 30 | 40 | CCCCCCCCCCCCNC(=O)C(F)(F)C(F)(F)C(F)(F)C(F)(F)C(F)(F)C(F)(F)C(F)(F)F [C7F15CONHC12H25] | – |
| @ RT → P > | @ RT → P > | @ RT → P > | S | 40 | – | – | 30 | 40 | CCCCCCCCCCCCNC(=O)C(F)(F)C(F)(F)C(F)(F)C(F)(F)C(F)(F)C(F)(F)C(F)(F)C(F)(F)F [C8F17CONHC12H25] | – |

— patent US20060002881A1, “Perfluorocarbon-soluble compounds” (priority 2004, published 2006)
